Assay results reported in ChEMBL document CHEMBL1201862, “PubChem BioAssay data set” (2004).
Structures can show the parent of a compound that is named as a salt. The source made the active and inactive calls.

Assays:
Vero = Vero cell cytotoxicity, cytotoxicity control for flavivirus capping enzyme inhibitors (AID 588742); assay type: functional; conditions: Chlorocebus sabaeus
[1] = target: T1, Sentrin-specific protease 8 (Homo sapiens, UniProt Q96LD8); assay: SENP8 protease inhibitors, SAR follow-up, biochemical, luminescence (AID 504501); assay type: functional
T1 sequence (Q96LD8 whole entry): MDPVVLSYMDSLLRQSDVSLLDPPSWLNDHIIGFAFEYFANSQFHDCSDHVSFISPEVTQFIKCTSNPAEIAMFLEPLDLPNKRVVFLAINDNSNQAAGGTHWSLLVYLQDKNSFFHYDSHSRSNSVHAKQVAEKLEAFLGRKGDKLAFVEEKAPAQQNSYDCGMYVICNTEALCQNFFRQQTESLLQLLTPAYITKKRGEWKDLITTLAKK

Caspase-3 = target: T2, Caspase-3 (Homo sapiens, UniProt P42574); assay: SAR Analysis of small molecule inhibitors of Sentrin-specific proteases (SENPs) using a Caspase-3 Selectivity assay. [Related pubchem assays (depositor defined):AID2540, AID2599, AID434973, AID489001]; assay type: functional
T2 sequence (P42574 whole entry): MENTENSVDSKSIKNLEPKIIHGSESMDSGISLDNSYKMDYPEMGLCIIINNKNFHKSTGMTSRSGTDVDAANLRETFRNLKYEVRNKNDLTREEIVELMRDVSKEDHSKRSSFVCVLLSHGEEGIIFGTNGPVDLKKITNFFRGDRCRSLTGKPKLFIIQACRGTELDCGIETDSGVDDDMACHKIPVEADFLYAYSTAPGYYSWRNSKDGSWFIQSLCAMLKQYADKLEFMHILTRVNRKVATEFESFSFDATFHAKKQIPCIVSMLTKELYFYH

[2] = target: T3, Sentrin-specific protease 6 (Homo sapiens, UniProt Q9GZR1); assay: SAR Analysis of small molecule inhibitors of Sentrin-specific protease 6 (SENP6) using a Luminescent assay. [Related pubchem assays (depositor defined):AID2582, AID2599]; assay type: functional
T3 sequence (Q9GZR1 whole entry): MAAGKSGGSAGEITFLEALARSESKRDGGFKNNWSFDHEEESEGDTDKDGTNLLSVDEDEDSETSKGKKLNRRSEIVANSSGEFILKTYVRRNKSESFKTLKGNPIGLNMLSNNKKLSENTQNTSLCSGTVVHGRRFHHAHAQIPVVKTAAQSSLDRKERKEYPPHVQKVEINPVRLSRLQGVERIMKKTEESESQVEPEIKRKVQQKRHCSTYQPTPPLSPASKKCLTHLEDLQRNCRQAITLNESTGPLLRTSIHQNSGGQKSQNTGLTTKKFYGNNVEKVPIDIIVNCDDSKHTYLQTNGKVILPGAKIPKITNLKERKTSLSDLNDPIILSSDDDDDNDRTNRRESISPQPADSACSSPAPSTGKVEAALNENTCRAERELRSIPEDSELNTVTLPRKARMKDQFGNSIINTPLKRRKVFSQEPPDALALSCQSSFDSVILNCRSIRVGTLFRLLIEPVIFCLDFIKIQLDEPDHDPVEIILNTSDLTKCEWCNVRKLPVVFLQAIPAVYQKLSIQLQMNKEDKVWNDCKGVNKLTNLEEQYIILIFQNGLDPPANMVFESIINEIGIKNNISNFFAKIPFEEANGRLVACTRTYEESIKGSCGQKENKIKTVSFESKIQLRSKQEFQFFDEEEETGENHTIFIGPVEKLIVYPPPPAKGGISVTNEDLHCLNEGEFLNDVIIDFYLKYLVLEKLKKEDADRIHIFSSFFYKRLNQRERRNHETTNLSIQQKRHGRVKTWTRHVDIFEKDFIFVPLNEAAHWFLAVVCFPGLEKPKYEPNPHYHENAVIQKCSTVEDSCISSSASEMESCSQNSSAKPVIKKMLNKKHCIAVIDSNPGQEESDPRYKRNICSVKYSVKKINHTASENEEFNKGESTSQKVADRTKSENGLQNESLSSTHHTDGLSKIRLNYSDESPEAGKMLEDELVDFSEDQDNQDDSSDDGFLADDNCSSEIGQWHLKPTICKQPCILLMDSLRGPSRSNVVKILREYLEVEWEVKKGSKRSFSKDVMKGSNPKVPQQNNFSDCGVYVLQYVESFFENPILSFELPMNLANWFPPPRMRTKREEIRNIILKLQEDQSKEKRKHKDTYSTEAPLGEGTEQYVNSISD

[3] = target: T4, Sentrin-specific protease 7 (Homo sapiens, UniProt Q9BQF6); assay: SENP7 protease inhibitors, SAR follow-up, biochemical, luminescence (AID 504497); assay type: functional
T4 sequence (Q9BQF6 whole entry): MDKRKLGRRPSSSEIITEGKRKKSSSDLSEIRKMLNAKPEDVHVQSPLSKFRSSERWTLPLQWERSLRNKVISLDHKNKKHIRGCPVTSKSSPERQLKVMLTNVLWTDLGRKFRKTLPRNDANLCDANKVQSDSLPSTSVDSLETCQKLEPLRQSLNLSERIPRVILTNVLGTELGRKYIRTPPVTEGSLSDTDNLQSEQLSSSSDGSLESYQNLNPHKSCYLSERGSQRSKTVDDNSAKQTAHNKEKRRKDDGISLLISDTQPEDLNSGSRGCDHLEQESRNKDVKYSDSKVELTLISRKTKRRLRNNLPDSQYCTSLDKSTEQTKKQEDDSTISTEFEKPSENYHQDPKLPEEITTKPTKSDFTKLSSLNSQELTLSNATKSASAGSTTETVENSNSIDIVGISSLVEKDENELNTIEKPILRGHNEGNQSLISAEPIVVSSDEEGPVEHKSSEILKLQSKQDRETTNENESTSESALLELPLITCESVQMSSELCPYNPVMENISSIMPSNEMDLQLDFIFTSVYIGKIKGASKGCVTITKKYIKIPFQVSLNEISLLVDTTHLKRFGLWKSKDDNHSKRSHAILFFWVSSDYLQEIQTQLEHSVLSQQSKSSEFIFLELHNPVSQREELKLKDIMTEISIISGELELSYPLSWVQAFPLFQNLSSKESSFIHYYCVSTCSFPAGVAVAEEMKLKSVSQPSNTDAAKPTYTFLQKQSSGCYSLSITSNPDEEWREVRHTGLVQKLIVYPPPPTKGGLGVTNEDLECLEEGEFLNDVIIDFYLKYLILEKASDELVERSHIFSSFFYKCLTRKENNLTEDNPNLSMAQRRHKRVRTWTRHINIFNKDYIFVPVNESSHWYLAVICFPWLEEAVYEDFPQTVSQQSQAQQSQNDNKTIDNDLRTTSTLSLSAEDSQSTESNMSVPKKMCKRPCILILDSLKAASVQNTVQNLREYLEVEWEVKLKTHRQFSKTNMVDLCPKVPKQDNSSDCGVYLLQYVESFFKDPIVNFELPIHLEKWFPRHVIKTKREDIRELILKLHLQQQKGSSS

[4] = target: T5, RNA-binding protein pos-1 (Caenorhabditis elegans, UniProt G5EF15); assay: inhibitors of POS-1/mex-3 RNA binding, dose response, biochemical, fluorescence polarization (AID 1964);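 also: purified POS-1 fused to maltose binding protein made in E. coli; potency of compounds blocking POS-1 binding to fluorescent RNA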
T5 sequence (G5EF15 whole entry): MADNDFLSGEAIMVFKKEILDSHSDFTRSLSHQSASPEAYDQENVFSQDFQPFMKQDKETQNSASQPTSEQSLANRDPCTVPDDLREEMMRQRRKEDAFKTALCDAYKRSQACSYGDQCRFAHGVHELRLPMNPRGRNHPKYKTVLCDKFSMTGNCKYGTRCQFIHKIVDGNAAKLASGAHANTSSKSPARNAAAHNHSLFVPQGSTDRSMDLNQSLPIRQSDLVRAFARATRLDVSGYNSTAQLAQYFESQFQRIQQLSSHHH

[5] = target: T6, Zinc finger protein mex-5 (Caenorhabditis elegans, UniProt Q9XUB2); assay: MEX-5/TCR-2 RNA interaction inhibitors, dose response, biochemical, C. elegans, fluorescence polarization (AID 1960)
T6 sequence (Q9XUB2 whole entry): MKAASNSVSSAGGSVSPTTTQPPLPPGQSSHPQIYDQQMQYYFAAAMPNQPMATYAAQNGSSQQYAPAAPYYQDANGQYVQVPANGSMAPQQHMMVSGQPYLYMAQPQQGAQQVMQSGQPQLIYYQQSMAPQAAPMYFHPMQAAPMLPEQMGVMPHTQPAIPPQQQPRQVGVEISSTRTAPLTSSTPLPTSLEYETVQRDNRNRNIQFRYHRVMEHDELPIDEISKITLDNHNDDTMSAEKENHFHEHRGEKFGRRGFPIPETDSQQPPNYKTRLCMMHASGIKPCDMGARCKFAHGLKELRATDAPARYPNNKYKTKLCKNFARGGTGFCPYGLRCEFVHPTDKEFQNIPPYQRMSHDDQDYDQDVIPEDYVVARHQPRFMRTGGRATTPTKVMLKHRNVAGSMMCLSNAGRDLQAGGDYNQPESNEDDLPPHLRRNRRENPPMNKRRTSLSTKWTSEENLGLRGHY

[6] = target: T7, Endoribonuclease toxin MazF (Escherichia coli K-12, UniProt P0AE70); assay: MazF toxin RNase activators, dose response, biochemical, fluorescence, single-stranded RNA substrate, uHTS hits (AID 588481); assay type: functional
T7 sequence (P0AE70 whole entry): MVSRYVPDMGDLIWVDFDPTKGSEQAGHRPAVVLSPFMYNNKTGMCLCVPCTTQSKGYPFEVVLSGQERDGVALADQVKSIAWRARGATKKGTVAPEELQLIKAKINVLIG

[7] = target: T7, Endoribonuclease toxin MazF; assay: fluorescent RNA oligo signal without MazF, dose response, counter-screen for MazEF activator project, biochemical, fluorescence, single-stranded RNase substrate (AID 588502); assay type: functional
HEK293 = assay: inhibitors of LMP1-driven NF-kB reporter, dose response, cell-based, HEK293, luciferase, cherry-pick (AID 588343); assay type: functional; conditions: Homo sapiens
[8] = target: 26S proteasome non-ATPase regulatory subunit 14 (Homo sapiens, UniProt O00487); assay: inhibition of proteasome subunit RPN11 – biochemical, fluorescence polarization, uHTS hits, confirmation (AID 602368); assay type: functional
[9] = target: 72 kDa type IV collagenase (Homo sapiens, UniProt P08253); assay: Dose Response validation of uHTS RPN11 inhibitor hits using a MMP-2 Fluorescence assay.; assay type: functional
Prothrombin = Prothrombin (Bos taurus, UniProt P00735); assay: thrombin inhibition, dose response, biochemical, fluorescence polarization, uHTS hits (AID 602369); assay type: functional
cells = assay type: functional, cell-based
[10] = target: T8, Nuclear receptor subfamily 0 group B member 1 (Homo sapiens, UniProt P51843); assay type: functional, cell-based;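 also: HEK293T cells transfected with SF-1 and DAX-1 plus StAR promoter luciferase reporter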
T8 sequence (P51843 whole entry): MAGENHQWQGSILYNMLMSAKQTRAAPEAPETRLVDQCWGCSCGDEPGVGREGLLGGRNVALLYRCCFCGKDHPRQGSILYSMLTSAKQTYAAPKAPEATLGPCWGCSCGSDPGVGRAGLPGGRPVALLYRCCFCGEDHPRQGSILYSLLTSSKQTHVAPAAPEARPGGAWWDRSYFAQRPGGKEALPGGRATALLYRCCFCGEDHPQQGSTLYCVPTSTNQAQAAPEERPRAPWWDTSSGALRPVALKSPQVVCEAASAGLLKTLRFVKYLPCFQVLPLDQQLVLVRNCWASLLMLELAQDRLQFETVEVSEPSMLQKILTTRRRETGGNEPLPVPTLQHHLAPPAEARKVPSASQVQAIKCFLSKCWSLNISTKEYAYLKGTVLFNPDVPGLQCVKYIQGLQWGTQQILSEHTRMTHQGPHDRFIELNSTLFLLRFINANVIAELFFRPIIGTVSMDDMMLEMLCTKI

[11] = target: Luciferin 4-monooxygenase (Photinus pyralis, UniProt P08659); assay: firefly luciferase enzyme inhibitors, dose response, biochemical, luminescence (AID 1891)
[12] = Luminescence Cell-Based Dose Confirmation HTS to Identify Inhibitors of Platelet Dense Granule Release. [Related pubchem assays: 1663 (Primary HTS), 1678 (Summary of Project)]; assay type: functional
[13] = growth suppression of PTEN-null colon cells, dose response, cell-based, HCT116 PTEN knockout (AID 1047); assay type: functional;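 also: HCT116 colon tumor cells with PTEN knocked out; cells exposed to compound for 60 hours before readout; potency for loss of cell viability measured by luminescence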
[14] = growth suppression of beta-catenin-knockout colon cells, dose response, cell-based, HCT116, human colon tumor (AID 1045); assay type: functional;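 also: HCT116 colon tumor cells with beta catenin knocked out; cells exposed to compound for 60 hours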
INS1 = assay: beta cell apoptosis inhibitors, cytokine rescue, dose response, luminescence, retest (AID 449756); assay type: functional, cell-based; conditions: Rattus norvegicus;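 also: cell death triggered by IL-1 beta plus TNF-alpha plus IFN-gamma mixture; protective hits raise ATP signal compared with cytokine alone wells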
Melanocortin receptor 4 = Melanocortin receptor 4 (Homo sapiens, UniProt P32245); assay type: functional, cell-based;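 also: Cell-based assay with luminescence read-out, confirmatory dose-response testing for agonist activity of biased ligands at MC4R; human U2OS cells with tagged receptor and beta-arrestin; potency of agonists that increase receptor coupling to beta-arrestin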
Sequence of Melanocortin receptor 4 (P32245 whole entry): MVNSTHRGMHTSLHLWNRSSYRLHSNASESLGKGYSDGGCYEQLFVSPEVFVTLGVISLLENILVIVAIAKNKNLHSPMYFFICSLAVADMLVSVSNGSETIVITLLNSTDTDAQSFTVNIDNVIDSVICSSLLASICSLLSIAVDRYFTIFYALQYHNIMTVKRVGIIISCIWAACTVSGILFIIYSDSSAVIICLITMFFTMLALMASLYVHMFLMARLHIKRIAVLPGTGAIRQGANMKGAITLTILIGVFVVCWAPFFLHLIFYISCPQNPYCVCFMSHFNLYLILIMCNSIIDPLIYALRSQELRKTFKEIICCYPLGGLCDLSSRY

Sequence of 26S proteasome non-ATPase regulatory subunit 14 (O00487 whole entry): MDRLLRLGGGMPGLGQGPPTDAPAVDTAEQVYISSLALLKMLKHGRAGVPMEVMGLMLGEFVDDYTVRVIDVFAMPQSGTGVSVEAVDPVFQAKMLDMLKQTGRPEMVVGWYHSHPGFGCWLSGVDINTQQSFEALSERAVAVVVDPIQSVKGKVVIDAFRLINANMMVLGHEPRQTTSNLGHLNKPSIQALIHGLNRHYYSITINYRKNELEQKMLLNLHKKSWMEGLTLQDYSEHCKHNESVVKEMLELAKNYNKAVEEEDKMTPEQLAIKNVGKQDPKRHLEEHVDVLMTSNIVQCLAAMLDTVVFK
Sequence of 72 kDa type IV collagenase (P08253 whole entry): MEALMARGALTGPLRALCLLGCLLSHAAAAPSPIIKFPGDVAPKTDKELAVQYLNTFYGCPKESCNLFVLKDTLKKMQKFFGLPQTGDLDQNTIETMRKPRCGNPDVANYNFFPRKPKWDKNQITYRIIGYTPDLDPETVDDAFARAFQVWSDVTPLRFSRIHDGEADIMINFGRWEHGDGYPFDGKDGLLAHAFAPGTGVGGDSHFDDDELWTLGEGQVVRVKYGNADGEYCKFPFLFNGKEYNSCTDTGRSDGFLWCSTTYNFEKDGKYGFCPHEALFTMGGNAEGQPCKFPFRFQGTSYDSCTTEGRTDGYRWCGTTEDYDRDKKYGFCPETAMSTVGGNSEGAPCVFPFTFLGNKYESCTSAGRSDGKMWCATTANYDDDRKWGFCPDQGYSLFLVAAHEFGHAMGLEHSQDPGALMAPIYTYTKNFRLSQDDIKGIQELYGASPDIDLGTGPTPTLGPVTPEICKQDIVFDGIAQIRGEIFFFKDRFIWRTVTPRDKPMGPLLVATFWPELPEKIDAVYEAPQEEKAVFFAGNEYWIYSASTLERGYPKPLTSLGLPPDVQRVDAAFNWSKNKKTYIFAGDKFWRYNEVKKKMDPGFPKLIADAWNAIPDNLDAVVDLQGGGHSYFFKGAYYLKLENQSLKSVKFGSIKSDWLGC
Sequence of Luciferin 4-monooxygenase (P08659 whole entry): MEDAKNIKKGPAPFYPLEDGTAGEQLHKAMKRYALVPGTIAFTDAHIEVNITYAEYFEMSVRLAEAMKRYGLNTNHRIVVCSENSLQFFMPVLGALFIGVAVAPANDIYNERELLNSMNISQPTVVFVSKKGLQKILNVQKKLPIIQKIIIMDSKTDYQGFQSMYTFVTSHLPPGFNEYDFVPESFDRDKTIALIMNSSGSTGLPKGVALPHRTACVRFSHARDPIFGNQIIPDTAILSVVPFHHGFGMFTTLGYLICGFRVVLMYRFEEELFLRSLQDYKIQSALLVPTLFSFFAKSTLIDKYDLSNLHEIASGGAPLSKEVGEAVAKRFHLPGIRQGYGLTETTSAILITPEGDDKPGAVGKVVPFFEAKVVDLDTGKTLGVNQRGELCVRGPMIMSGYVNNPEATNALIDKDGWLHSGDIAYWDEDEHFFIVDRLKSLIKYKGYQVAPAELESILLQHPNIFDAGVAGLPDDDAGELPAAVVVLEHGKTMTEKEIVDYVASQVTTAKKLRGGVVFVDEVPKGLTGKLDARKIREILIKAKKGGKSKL

CN1CCN(C(c2ccccc2)c2ccc(Cl)cc2)CC1 (stereo not given) [CHLORCYCLIZINE HYDROCHLORIDE]
CC50 (Vero): > 40 µM (active)

CCc1cccc2c(C(=O)CN3C(=O)c4ccccc4C3=O)c[nH]c12
IC50 [1]: > 99 µM (inactive)
IC50 (Caspase-3): > 99 µM (inactive)
IC50 [2]: > 99 µM (inactive)
IC50 [3]: > 99 µM (inactive)

COc1ccc2c(c1)c1nc3ccccc3nc1n2CCCN1C(=O)c2ccccc2C1=O
EC50 [4]: 32.7 µM (active)
EC50 [5]: 73.9 µM (inconclusive)
EC50 [6]: > 99 µM (inactive)
EC50 [7]: > 99 µM (inactive)

O=[N+]([O-])c1ccc(-c2nc(/C=C/c3ccc(F)cc3)no2)cc1
IC50 [1]: > 99 µM (inactive)
IC50 (Caspase-3): > 99 µM (inactive)
IC50 [2]: > 99 µM (inactive)
IC50 [3]: > 99 µM (inactive)

Cc1ccsc1/C=C/c1ccc2ccccc2n1
AC50 (HEK293): 15.8 µM (active)
IC50 [8]: 23.4 µM (active)
IC50 [9]: > 100 µM (inactive)
IC50 (Prothrombin): 29.3 µM (active)
IC50 (cells): > 67.5 µM (inactive)
IC50 [10]: > 0.278 µM (active)

CCC(C)c1ccc(NC(S)=NC2CCN(Cc3ccccc3)CC2)cc1 (stereo not given)
EC50 [11]: > 112 µM (not active)
EC50 [12]: > 112 µM (not active)
EC50 [13]: 13.5 µM (active)
EC50 [14]: 14.2 µM (active)
AC50 (INS1): 6.84 µM (active)
EC50 (Melanocortin receptor 4): > 9.91 µM (active)
